In publication PMC3021963 (ChemMedChem, 2010):

Key:
Format in all cases: biochemical
MbtI [1] = molecular target: T1, MbtI (Mycobacterium tuberculosis, UniProt P9WFX1); assay: continuous fluorescence assay of MbtI; conditions: for Fluorescence Assay Hill: Table 1, Hill slope of concentration-response plot
MbtI [2] = molecular target: T1, MbtI; assay: HPLC end-point assay of MbtI; conditions: for HPLC Assay Hill: Table 1, Hill slope of concentration-response plot
MbtI [3] = molecular target: T1, MbtI
[4] = IC50, Table 2, class II diarylsulfones
[5] = Table 3, class III benzimidazole-2-thiones
[6] = Table 3, class III benzimidazole-2-thiones, synthetically prepared compounds
[7] = Table 2, class II diarylsulfones

T1 sequence (P9WFX1 whole entry, looked up): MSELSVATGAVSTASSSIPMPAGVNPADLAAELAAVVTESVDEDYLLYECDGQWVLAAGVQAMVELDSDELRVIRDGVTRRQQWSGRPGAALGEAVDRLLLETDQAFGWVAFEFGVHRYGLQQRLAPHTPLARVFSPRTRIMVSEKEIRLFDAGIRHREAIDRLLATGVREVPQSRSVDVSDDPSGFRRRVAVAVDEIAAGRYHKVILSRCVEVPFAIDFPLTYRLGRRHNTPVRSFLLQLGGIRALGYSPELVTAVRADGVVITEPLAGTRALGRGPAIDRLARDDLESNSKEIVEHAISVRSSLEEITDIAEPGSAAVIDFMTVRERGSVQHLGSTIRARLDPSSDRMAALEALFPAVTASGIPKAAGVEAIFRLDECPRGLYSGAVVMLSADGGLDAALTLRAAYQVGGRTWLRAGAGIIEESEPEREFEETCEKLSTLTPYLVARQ

O=S(=O)(NCc1ccccc1)c1cccc(S(=O)(=O)c2ccc(Cl)c(Cl)c2)c1 [Compound 30, N-Benzyl-3-(3,4-dichlorophenylsulfonyl)benzenesulfonamide]
IC50 (MbtI [1]; [4]): > 200 µM

CC(=O)N1C(=O)Cc2ccccc21 [Compound 43, 1-Acetyl-2-oxindole]
MbtI inhibition (in words) (MbtI [1]): completely inactive

Nc1ccc(S(=O)(=O)c2ccc(N)cc2)cc1 [Compound 33, 4,4′-diaminodiphenylsulfone, reference compound]
IC50 (MbtI [1]; [4]): 118 ± 19 µM

NS(=O)(=O)c1cccc(S(=O)(=O)c2ccc(Cl)cc2)c1 [Compound 26, 3-(4-Chlorophenylsulfonyl)benzenesulfonamide]
MbtI inhibition (in words) (MbtI [1]): complete loss of activity
IC50 (MbtI [1]; [4]): > 200 µM

Cn1c(=S)[nH]c2ccccc21 [Compound 40, N-methylbenzimidazole-2-thione]
change in potency relative to parent compound 4 (MbtI [1]): six- to nine-fold decreases in potency
Hill Slope (MbtI [1]; [5]): 1.20

CNS(=O)(=O)c1cccc(S(=O)(=O)c2ccccc2)c1 [Compound 28, N-Methyl-3-(phenylsulfonyl)benzenesulfonamide]
IC50 (MbtI [1]; [4]): > 200 µM

CC(=O)NS(=O)(=O)c1cccc(S(=O)(=O)c2ccc(Cl)c(Cl)c2)c1 [Compound 32, N-[3-(3,4-Dichlorophenylsulfonyl)phenylsulfonyl]acetamide]
MbtI inhibition (in words) (MbtI [1]): completely inactive
IC50 (MbtI [1]; [4]): > 200 µM

CC(=O)n1c(=S)oc2ccccc21 [Compound 42, 1-Acetylbenzoxazole-2-thione]
change in potency relative to parent compound 4 (MbtI [1]): about twofold less potent
Hill Slope (MbtI [1]; [5]): 1.10
IC50 (MbtI [1]; [6]): 21.8 ± 1.4 µM

CNS(=O)(=O)c1cccc(S(=O)(=O)c2ccc(Cl)c(Cl)c2)c1 [Compound 29, 3-(3,4-Dichlorophenylsulfonyl)-N-methylbenzenesulfonamide]
IC50 (MbtI [1]; [4]): > 200 µM

CC(=O)n1cnc2ccccc21 [Compound 44, 1-Acetylbenzimidazole]
MbtI inhibition (in words) (MbtI [1]): completely inactive

CC(=O)n1c(=S)[nH]c2ccccc21 [Compound 4, 1-Acetylbenzimidazole-2-thione]
Fluorescence Assay Hill (MbtI [1]): 1.71
Hill Slope (MbtI [1]; [5]): 1.00
IC50 (MbtI [2]): 5.16 ± 0.49 µM
HPLC Assay Hill (MbtI [2]): 1.23
Ki (MbtI [3]): 9.7 µM
α value (MbtI [3]; noncompetitive inhibition model): 1
mode of inhibition (MbtI [3]; with respect to chorismate): noncompetitive inhibition

O=S(=O)(c1cccc(S(=O)(=O)N2CCOCC2)c1)c1ccc(Cl)c(Cl)c1 [Compound 31, N-[3-(3,4-Dichlorophenylsulfonyl)phenylsulfonyl]morpholine]
IC50 (MbtI [1]; [7]): > 200 µM

NS(=O)(=O)c1cccc(S(=O)(=O)c2ccccc2)c1 [Compound 27, 3-(Phenylsulfonyl)benzenesulfonamide]
MbtI inhibition (in words) (MbtI [1]): complete loss of activity
IC50 (MbtI [1]; [4]): > 200 µM

S=c1[nH]c2ccccc2[nH]1 [Compound 34, benzimidazole-2-thione]
change in potency relative to parent compound 4 (MbtI [1]): six- to nine-fold decreases in potency
Hill Slope (MbtI [1]; [5]): 0.90

NS(=O)(=O)c1cccc(S(=O)(=O)c2ccc(Cl)c(Cl)c2)c1 [Compound 8, 3-(3,4-Dichlorophenylsulfonyl)benzenesulfonamide]
IC50 (MbtI [1]; [4]): 35 µM
Fluorescence Assay Hill (MbtI [1]): 0.85
Hill Slope (MbtI [1]; [7]): 0.85
IC50 (MbtI [2]): 49.2 ± 11.6 µM
HPLC Assay Hill (MbtI [2]): 0.7

CC(=O)n1c(=O)[nH]c2ccccc21 [Compound 45, 1-Acetylbenzimidazole-2-one]
MbtI inhibition (in words) (MbtI [1]): completely inactive

CSc1nc2ccccc2[nH]1 [Compound 46, 2-thiomethylbenzimidazole]
MbtI inhibition (in words) (MbtI [1]): completely inactive
IC50 (MbtI [1]; [6]): > 200 µM

CC(=O)n1c(=S)[nH]c2cc(C)ccc21 [Compound 41, 1-Acetyl-5/6-methylbenzimidazole-2-thione]
change in potency relative to parent compound 4 (MbtI [1]): no impact on potency was observed
Hill Slope (MbtI [1]; [5]): 1.20
IC50 (MbtI [1]; [6]): 7.6 ± 0.4 µM

CC(=O)n1cc[nH]c1=S [Compound 47, 1-Acetylimidazole-2-thione]
MbtI inhibition (in words) (MbtI [1]): abolished all activity
